According to patent publication US6660255B1, “Inhibition of gene transcription by polyamide DNA-binding ligands” (California Institute of Technology, priority 1997, dated 2003):
Read-outs that look alike come from different tables or passages of the source.

How the values were obtained:
[1] = tested on: 5′-TGCTGCA-3′ (the HIV-1 target sequence); assay type: binding
[2] = tested on: wild-type HIV-1 promoter; assay: HIV-1 transcription in vitro with lymphoid cell nuclear extract; assay type: biochemical; conditions: read-out: polyamide concentration for fifty percent inhibition of HIV-1 transcription
Description: The recognition sites for polyamide HIV-1 are of the form 5′-WGCWGCW-3″ (where W=A or T). Since a pyrrole-pyrrole pair can recognize either an A-T base pair or a T-A base pair, polyamide HIV-1 will recognize both the 5′ and 3′ flanking sequences of the HIV-1 TATA element. […] This concentration corresponds to only a 16-fold excess of polyamide over specific binding sites in the HIV-1 plasmid DNA (3 nM).

CN(C)CCCNC(=O)CCNC(=O)c1cc(NC(=O)c2nc(NC(=O)CCNC(=O)c3cc(NC(=O)c4nc(NC(=O)CCCNC(=O)c5cc(NC(=O)c6nc(NC(=O)CCNC(=O)c7cc(NC(=O)c8nccn8C)cn7C)cn6C)cn5C)cn4C)cn3C)cn2C)cn1C [polyamide 4, ImPy-β-ImPy-γ-ImPy-β-ImPy-β-Dp]
Equilibrium association constants, 5′-aTGCTGCA-3′ ([1]; Buffer A, 24° C.): 1.5 × 10^10 (0.3) M^a
Equilibrium association constants, 5′-aTGCTGCA-3′ ([1]; Buffer A, 37° C.): 8.4 × 10^9 (2.3) M^a
Equilibrium association constants, 5′-aTGCTGCA-3′ ([1]; Buffer B (140 mM KCl, 10 mM NaCl, 1 mM MgCl2, 1 mM spermine pH 7.2), 24° C.): 1.9 × 10^10 (0.6) M^a
Equilibrium association constants, 5′-aTGCTGCA-3′ ([1]; Buffer B, 37° C.): 1.1 × 10^10 (0.2) M^a
fold higher affinity relative to unlinked analog ([1]; polyamide 4 vs 8): ~6000 fold
IC50 [2]: ~0.05 µM
